We go through six compounds from paper PMC12332266 (Frontiers in Pharmacology, 2025).

Series [1] deals with hiPSC-CM (iCell Cardiomyocytes^2). Kind of series: Intracellular miRNA expression by RT-qPCR in hiPSC-CM pellets after 72-hour treatment. Conditions: for fold induction at 0.1 µM / fold induction at 0.3 µM / fold induction at 1 µM / fold induction at 3 µM / fold induction at 0.01 µM / fold induction at 0.03 µM: Homo sapiens. As for the experimental part: (§1) Culture media change was performed every 2 days.
Total RNA was extracted from hiPSC-CM using the miRNeasy 96 Kit (Qiagen, Hilden, Germany) following the manufacturer’s recommendations. After the extraction, RNA purity was assessed by NanoDrop™ 8000 Spectrophotometer (Thermo Fisher Scientific Inc.). 5–10 ng/μL of RNA per sample were reverse transcribed and pre-amplified by using the TaqMan™ Advanced miRNA cDNA Synthesis Kit (Thermo Fisher Scientific Inc.). The synthesized cDNA was used for RT-qPCR with selected TaqMan™ assays (Thermo Fischer Scientific Inc.). RT-qPCR was carried out following the Applied Biosciences TaqMan miRNA expression assay protocol on a ViiA7 instrument (Thermo Fisher Scientific, Inc.). […] Therefore, to maximize the number of drugs and concentrations, explored in the same study, we pooled the triplicates for intracellular profiling of miRNAs. Therefore, no statistical analysis was performed on the data of miRNA profiling in the pellets of hiPSC-CM.
Following RTCA CardioECR assessment, hiPSC-CM cell pellets were collected, and total RNA was extracted and purified to investigate miRNAs upregulation by RT-qPCR. […] For the initial assessment of intracellular miRNAs in 12 different treatments, encompassing various drug classes, we used a panel of 17 miRNAs, which we selected from the publicly available data focusing mainly on in vitro models and structural cardiotoxicants (Supplementary Table S2).

The test system is the same in series [2]. Kind of series: RTCA CardioECR assessment (impedance and electrophysiology parameters). The method, then: as §1
After seeding on fibronectin-coated xCELLigence ePlates (Agilent Technologies, Inc. Santa Clara, CA, USA), iCell^2 CM were monitored continuously through impedance electrodes. The following impedance parameters were measured: Cell Index (CI, measure of cell “health” and monolayer integrity), beating rate (BR) and amplitude (CI Amplitude, magnitude of contraction). Electrophysiology-like parameters (Field Potential Duration (FPD), considered as a surrogate for QT in in vivo studies, and Spike Amplitude (SA), depolarization induced by Na^+ channel opening) were measured starting from day 4–6, following the monolayer formation. […] All RTCA CardioECR data were double normalized (DMSO control and the baseline) with no further statistical group comparison for the normalized parameters. The variability of the data within the treatment groups was assessed by standard deviation.

[3] abbreviates: 72 h, read-out: hsa-miR-7-5p fold change.
[4] abbreviates: 72 h, read-out: hsa-miR-29a-5p fold change.
The mark [5] stands for this setting: 72 h, read-out: hsa-miR-126-3p fold change.
The mark [6] stands for this setting: 72 h, read-out: hsa-miR-133b fold change.
The mark [7] stands for this setting: 72 h, read-out: hsa-miR-146b-5p fold change.
Setting [8] is: 72 h, read-out: hsa-miR-182-5p fold change.
Where [9] appears, read: 72 h, read-out: hsa-miR-185-3p fold change.
Setting [10] is: 72 h, read-out: hsa-miR-187-3p fold change.
The mark [11] stands for this setting: 72 h, read-out: hsa-miR-208b-3p fold change.
[12] abbreviates: 72 h, read-out: hsa-miR-365a-5p fold change.
Where [13] appears, read: 72 h, read-out: hsa-miR-96-5p fold change.
Setting [14] is: 72 h, read-out: hsa-miR-[…] change.
Setting [15] is: hiPSC-CM, 72-hour treatment, lowest concentration causing at least 20% change from baseline.

Values joined by “and” are separate entries in the source; they are usually repeats but may differ in a detail not shown here. Identical values can stand only once. Like-named read-outs stand apart in the source and are kept apart here.

In the case of `Cc1ccc(NC(=O)c2ccc(CN3CCN(C)CC3)cc2)cc1Nc1nccc(-c2cccnc2)n1` [Imatinib], in series [1], the “miRNAs hiPSC-CM pellet, MEC overall” value is recorded as 0.3 µM. In addition, the “Spike Amplitude (SA) MEC” value in series [2] (human, 72 h) turned out to be 0.3 µM.
With `O=C1c2c(O)ccc(O)c2C(=O)c2c(NCCNCCO)ccc(NCCNCCO)c21` [Mitoxantrone], in series [1], the “miRNAs hiPSC-CM pellet, MEC overall” value amounted to 0.1 µM and the “miRNAs upregulated at the MEC overall (hiPSC-CM pellet)” value (shortened to “miRNAs upregulated at the MEC overall”) is “miR-96 -5p, miR-146b-5p, miR-182-5p, miR-187-3p, miR-365a-5p”. In addition, the “RTCA, MEC (CI)” value in series [2] (hiPSC-CM, change ≥20%, Table 2) is reported as 0.1 µM (CI, BR). Further, in series [2] (human, 72 h), the “Beating Rate MEC” value is 0.1 µM, the “Beating rate (BR) MEC” value is 0.1 µM, the “Contractility Amplitude MEC” value was 0.1 µM and the “Field Potential Duration MEC” value was determined as 0.1 µM. In series [2] (human, 72 h), the “RTCA, MEC (BR)” value is on record as 0.1 µM (CI, BR) and the “Spike Amplitude (SA) MEC” value came out at 0.1 µM.
`COc1nc(N)nc2c1ncn2[C@@H]1O[C@H](COP(=O)(N[C@@H](C)C(=O)OCC(C)(C)C)Oc2cccc3ccccc23)[C@@H](O)[C@@]1(C)O` (stereo partly drawn) [BMS-986094]: in series [1], the “intracellular miRNA upregulation in hiPSC-CM, in words” value is given as “lowest upregulation of miRNAs was detected at the highest concentration tested”. Also, the “miRNAs hiPSC-CM pellet, MEC overall” value in series [1] was found to be 0.1 µM. Further, the “miRNAs upregulated at the MEC overall” value in series [1] was “miR-29a-5p, miR-365a-5p”. Further, the fold induction at 0.1 µM in series [1] (setting [3]) stood at 1.7; in series [1] (setting [4]), 6.3; in series [1] (setting [5]), 0.3; in series [1] (setting [6]), 1.3; in series [1] (setting [7]) it was 1.8; in series [1] (setting [8]), 1. In addition, the fold induction at 0.1 µM in series [1] (setting [10]) is 0.5; in series [1] (setting [11]) it was 1.7; in series [1] (setting [12]) it was 2.2. Moreover, the fold induction at 0.3 µM in series [1] (setting [3]) came out at 1; in series [1] (setting [4]), 1; in series [1] (setting [5]), 2.9; in series [1] (setting [6]), 3.3; in series [1] (setting [7]), 4.2; in series [1] (setting [8]) it was 8.8. Besides, the fold induction at 0.3 µM came out at 0.5 in series [1] (setting [9]), 2.7 in series [1] (setting [10]), 1.3 in series [1] (setting [11]) and 0.7 in series [1] (setting [12]). Also, the fold induction at 1 µM amounted to 1.3 in series [1] (setting [3]); 1.2 in series [1] (setting [4]); 2.8 in series [1] (setting [5]); 2 in series [1] (setting [6]); 11.3 in series [1] (setting [7]); 7.1 in series [1] (setting [8]). Moreover, the fold induction at 1 µM in series [1] (setting [9]) was found to be 3.3; in series [1] (setting [10]), 8.8; in series [1] (setting [11]) it was 1.1; in series [1] (setting [12]) it was 1.3. The fold induction at 3 µM in series [1] (setting [3]) stood at 1.3; in series [1] (setting [4]) it was 0.5; in series [1] (setting [5]) it was 5.2; in series [1] (setting [6]) it was 1.3; in series [1] (setting [7]), 1.4; in series [1] (setting [8]), 5.5. Besides, the fold induction at 3 µM worked out at 8.2 in series [1] (setting [9]), 1 in series [1] (setting [11]) and 0.7 in series [1] (setting [12]). Further, the “Beating Rate MEC” value in series [2] (human, 72 h) turned out to be 0.048 µM. Besides, in series [2] (human, 72 h), the “RTCA, MEC (BR)” value is on record as 0.048 µM. In addition, the “Spike Amplitude (SA) MEC” value in series [2] (human, 72 h) was determined as 0.16 µM.
Consider `CC(=O)O[C@H]1C(=O)[C@@]2(C)[C@H]([C@H](OC(=O)c3ccccc3)[C@]3(O)C[C@H](OC(=O)[C@H](O)[C@@H](NC(=O)c4ccccc4)c4ccccc4)C(C)=C1C3(C)C)[C@]1(OC(C)=O)CO[C@@H]1C[C@@H]2O` [Paclitaxel], for which, in series [1], the “miRNAs hiPSC-CM pellet, MEC overall” value amounted to 0.3 µM and the “miRNAs upregulated at the MEC overall” value was “miR-96-5p, miR-133b”. Further, in series [2] (hiPSC-CM, change ≥20%, Table 2), the “RTCA, MEC (CI)” value is on record as 0.3 µM. In series [2] (human, 72 h), the “Beating Rate MEC” value was found to be 3 µM, the “Beating rate (BR) MEC” value is 3 µM, the “Contractility Amplitude MEC” value is 0.3 µM and the “Field Potential Duration MEC” value was 3 µM. For the same compound, in series [2] (human, 72 h), the “RTCA, MEC (BR)” value is 3 µM and the “Spike Amplitude (SA) MEC” value was determined as 3 µM.
Endothelin-1: in series [1], the hsa-miR-133b fold change was 2.7 and 3.5 and 3.1; the hsa-miR-208b-3p fold change was 1.6 and 1.5 and 1.1 and 1.0. Moreover, in series [2] (hiPSC-CM, 72-hour treatment), the “Contractility Amplitude magnitude of effect at MEC” value was -20%, the “Field Potential Duration magnitude of effect at MEC” value was “+20%” and the “Spike Amplitude (SA) magnitude of effect at MEC” value is on record as -52%.
Take `CCN[C@@H](C)Cc1cccc(C(F)(F)F)c1` [Dexfenfluramine]: the fold induction at 0.01 µM turned out to be 0.8 in series [1] (setting [3]); 1.8 in series [1] (setting [4]); 1.8 in series [1] (setting [13]); 1.3 in series [1] (setting [5]); 4 in series [1] (setting [6]); 0.5 in series [1] (setting [7]). The fold induction at 0.01 µM in series [1] (setting [8]) was found to be 0.01; in series [1] (setting [9]), 2.1; in series [1] (setting [10]), 0.6; in series [1] (setting [11]), 1.1; in series [1] (setting [14]) it was 1.2. Also, the fold induction at 0.03 µM was determined as 0.8 in series [1] (setting [3]); 0.8 in series [1] (setting [4]); 0.8 in series [1] (setting [13]); 2.3 in series [1] (setting [5]); 0.7 in series [1] (setting [6]); 0.7 in series [1] (setting [7]). Also, the fold induction at 0.03 µM is 0.004 in series [1] (setting [8]); 1.2 in series [1] (setting [9]); 0.7 in series [1] (setting [10]); 1 in series [1] (setting [11]); 2.6 in series [1] (setting [12]); 0.9 in series [1] (setting [14]). In addition, the fold induction at 0.1 µM in series [1] (setting [3]) came out at 0.7; in series [1] (setting [5]), 0.6; in series [1] (setting [6]), 0.5; in series [1] (setting [7]), 0.4; in series [1] (setting [8]), 0.003; in series [1] (setting [9]) it was 1. For the same compound, the fold induction at 0.1 µM in series [1] (setting [10]) was determined as 0.7; in series [1] (setting [11]) it was 0.8; in series [1] (setting [14]), 0.8. For the same compound, the fold induction at 0.3 µM came out at 1 in series [1] (setting [3]); 0.7 in series [1] (setting [4]); 0.7 in series [1] (setting [13]); 0.5 in series [1] (setting [5]); 0.1 in series [1] (setting [6]); 0.7 in series [1] (setting [7]). In addition, the fold induction at 0.3 µM in series [1] (setting [8]) was 0.01; in series [1] (setting [9]) it was 0.7; in series [1] (setting [10]), 0.6; in series [1] (setting [11]) it was 0.9; in series [1] (setting [12]), 8.9; in series [1] (setting [14]) it was 0.8. In series [1] (fold change ≥2, 72 h), the “miRNAs upregulated at the MEC overall” value was “miR-133b, miR-185-3p”. Moreover, the “miRNAs hiPSC-CM pellet, MEC overall” value in series [1] (lowest concentration tested which produced miRNA upregulation (fold change ≥2), 72 h) was 0.01 µM. The “Spike Amplitude (SA) MEC” value in series [2] (hiPSC-CM, 72-hour treatment, at least 40% change) was 0.01 µM. In addition, the “Beating rate (BR) MEC” value in series [2] (setting [15]) is “ND (ND – not detected, magnitude of change was lower than 20%)”. The “Cell index (CI) MEC” value in series [2] (setting [15]) is “ND (ND – not detected, magnitude of change was lower than 20%)”. In addition, the “RTCA, MEC (BR)” value in series [2] (hiPSC-CM, change ≥20%, Table 2) is “ND (ND – not detected, magnitude of change was lower than 20% for CI/BR)”. In series [2] (hiPSC-CM, change ≥20%, Table 2), the “RTCA, MEC (CI)” value is recorded as “ND (ND – not detected, magnitude of change was lower than 20% for CI/BR)”.
